Reference: ChEMBL document CHEMBL1152314, “Antineoplastic agents. 565. Synthesis of combretastatin D-2 phosphate and dihydro-combretastatin D-2” (J Nat Prod, 2009)
pIC50: −log10 of the molar value. ≈ marks a conversion by molar mass, not a printed value. Calls of active or inactive are those of the source. The calls are words filed in the database; no cut-off is given here.

Columns and labels:
P388 = experiment: Cytotoxicity against mouse P388 cells; format: functional; details: read-out: ED50 (the source's name)
[1] = Cytotoxicity against human breast cancer cells; format: functional; details: Cancer cell lines
[2] = Cytotoxicity against human lung cancer cells; format: functional; details: Cancer cell lines
[3] = Cytotoxicity against human colon cancer cells; format: functional; details: Cancer cell lines
[4] = Cytotoxicity against human pancreatic cancer cells; format: functional; details: Cancer cell lines
[5] = Cytotoxicity against human brain cancer cells; format: functional; details: Cancer cell lines
[6] = Cytotoxicity against human prostate cancer cells; format: functional; details: Cancer cell lines
[7] = Solubility in water at 25 degC; format: physicochemical
Cryptococcus neoformans = experiment: Antimicrobial activity against Cryptococcus neoformans ATCC 90112; format: functional, organism-based
Micrococcus luteus = experiment: Antimicrobial activity against Micrococcus luteus Presque Isle 456; format: functional, organism-based
Enterobacter cloacae = experiment: Antimicrobial activity against Enterobacter cloacae ATCC 13047; format: functional, organism-based
Escherichia coli = experiment: Antimicrobial activity against Escherichia coli ATCC 25922; format: functional, organism-based
Candida albicans = experiment: Antimicrobial activity against Candida albicans ATCC 90028; format: functional, organism-based
Staphylococcus aureus = experiment: Antimicrobial activity against Staphylococcus aureus ATCC 29213; format: functional, organism-based
[8] = tested on: Stenotrophomonas maltophilia; experiment: Antimicrobial activity against Stenotrophomonas maltophilia ATCC 13637; format: functional, organism-based
Streptococcus pneumoniae = experiment: Antimicrobial activity against Streptococcus pneumoniae ATCC 6303; format: functional, organism-based
Neisseria gonorrhoeae = experiment: Antimicrobial activity against Neisseria gonorrhoeae ATCC 49226; format: functional, organism-based
Enterococcus faecalis = experiment: Antimicrobial activity against Enterococcus faecalis ATCC 29212; format: functional, organism-based
[9] = Inhibition of tubulin polymerization

Row | Structure (SMILES) | EC50 (P388) [µg/mL] | GI50 [1] [µg/mL] | GI50 [2] [µg/mL] | GI50 [3] [µg/mL] | GI50 [4] [µg/mL] | GI50 [5] [µg/mL] | GI50 [6] [µg/mL] | also measured
1 | COc1ccc(CCC(=O)OCCCc2ccc(Br)cc2)cc1O | > 100 | – | – | – | – | – | – | –
2 | C1COCCN1.C1COCCN1.O=C1CCc2ccc(OP(=O)(O)O)c(c2)Oc2ccc(cc2)/C=C\CO1 | 86.2 | > 10 | > 10 | > 10 | > 10 | > 10 | > 10 | solubility ([7]; water, read-out: solubility): 5 mg/mL
3 | O=C1CCc2ccc(O)c(c2)Oc2ccc(cc2)CCCO1 [CORNICULATOLIDE A] | > 100 | – | – | – | – | – | – | Activity (Cryptococcus neoformans): inactive; Activity (Micrococcus luteus): inactive; Activity (Enterobacter cloacae): inactive; Activity (Escherichia coli): inactive; Activity (Candida albicans): inactive; Activity (Staphylococcus aureus): inactive; Activity [8]: inactive; Activity (Streptococcus pneumoniae): inactive; Activity (Neisseria gonorrhoeae): inactive; Activity (Enterococcus faecalis): inactive
4 | COc1ccc(C[C@@H](O)c2cc(OC)c(OC)c(OC)c2)cc1O [COMBRETASTATIN] | 0.011 (≈ 0.0329 µM) | – | – | – | – | – | – | pIC50 [9]: 5.30
5 | O=C1CCc2ccc(O)c(c2)Oc2ccc(cc2)/C=C\CO1 | 5.2 (≈ 17.5 µM) | 6.6 (≈ 22.3 µM) | 6 (≈ 20.2 µM) | > 10 | 4.8 (≈ 16.2 µM) | 4.7 (≈ 15.9 µM) | 2.7 (≈ 9.11 µM) | Activity (Cryptococcus neoformans): inactive; Activity (Micrococcus luteus): inactive; Activity (Enterobacter cloacae): inactive; Activity (Escherichia coli): inactive; pIC50 [9]: < 4.40; Activity (Candida albicans): inactive; Activity (Staphylococcus aureus): inactive; Activity [8]: inactive; Activity (Streptococcus pneumoniae): inactive; Activity (Neisseria gonorrhoeae): inactive; solubility ([7]; buffer): 0.5 mg/mL (≈ 1690 µM); Activity (Enterococcus faecalis): inactive
6 | O=C1CCc2ccc(OCc3ccccc3)c(c2)Oc2ccc(cc2)CCCO1 | > 100 | – | – | – | – | – | – | –
7 | O=C1CCc2ccc(OP(=O)([O-])[O-])c(c2)Oc2ccc(cc2)/C=C\CO1.[Na+].[Na+] | 23.9 | 30.5 | 13.3 | 25.5 | 22.1 | 36.3 | 18.2 | solubility ([7]; buffer): > 70 mg/mL
8 | COc1ccc2cc1Oc1ccc(cc1)/C=C\COC(=O)CC2 | 8.1 (≈ 26.1 µM) | 0.83 (≈ 2.67 µM) | 6.6 (≈ 21.3 µM) | 9.4 (≈ 30.3 µM) | 7.3 (≈ 23.5 µM) | 2.2 (≈ 7.09 µM) | 5.6 (≈ 18 µM) | –
9 | O=C1CCc2ccc(O)c(c2)Oc2ccc(cc2)[C@H]2O[C@@H]2CO1 | 3.3 (≈ 10.6 µM) | – | – | – | – | – | – | pIC50 [9]: < 4.40
10 | COc1ccc(CCC(=O)OC/C=C\c2ccc(Br)cc2)cc1O | > 100 | 16.4 (≈ 41.9 µM) | 16.5 (≈ 42.2 µM) | 17.1 (≈ 43.7 µM) | 16.4 (≈ 41.9 µM) | 18.5 (≈ 47.3 µM) | 8.9 (≈ 22.7 µM) | –
11 | COc1ccc(/C=C\c2cc(OC)c(OC)c(OC)c2)cc1O [COMBRETASTATIN A4] | 0.0034 (≈ 0.0107 µM) | – | – | – | – | – | – | –
12 | O=C(CCc1ccc(OCc2ccccc2)c(O)c1)OC/C=C\c1ccc(F)c([N+](=O)[O-])c1 | > 100 | – | – | – | – | – | – | –
13 | O=C1CCc2ccc(OCc3ccccc3)c(c2)Oc2ccc(cc2)/C=C\CO1 | > 100 | – | – | – | – | – | – | –
14 | O=C(CCc1ccc(OCc2ccccc2)c(O)c1)OC/C=C\c1ccc(Br)cc1 | > 100 | – | – | – | – | – | – | –
15 | O=C1CCc2ccc(OP(=O)([O-])[O-])c(c2)Oc2ccc(cc2)/C=C\CO1.[Li+].[Li+] | 27.1 | 26.1 | 14.4 | 27.5 | 35.9 | 37.9 | 4.3 | solubility ([7]; buffer): 20 mg/mL
16 | O=C1CCc2ccc(OP(=O)([O-])[O-])c(c2)Oc2ccc(cc2)/C=C\CO1.[K+].[K+] | – | 34.5 | 27.8 | 40.6 | 40.1 | 45.2 | 14.4 | solubility ([7]; buffer): > 50 mg/mL
17 | COc1ccc(CCC(=O)OC/C=C\c2ccc(F)c([N+](=O)[O-])c2)cc1O | 27 (≈ 71.9 µM) | – | – | – | – | – | – | –
